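Growth conditions: 96-well plates. Treatment: test compound, 48 hours, 5 concentrations. Analysis: linear interpolation between bracketing concentrations; unreached endpoints set to highest concentration. Abbreviation: GI50, concentration required for 50% inhibition of growth.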 Active and inactive are the calls of the source. No stated cut-off is given here; in the data, active = GI50 up to about 1.1 µM and inactive = higher.
Assays:
Test in all cases: growth of human tumour cells (NCI), 48 h
T47D = test system: T47D
LOX IMVI = test system: LOX IMVI
BT-549 = test system: BT-549
HOP-62 = test system: HOP-62
786-0 = test system: 786-0
SF-268 = test system: SF-268
NCI-H23 = test system: NCI-H23
SW-620 = test system: SW-620
OVCAR-8 = test system: OVCAR-8
MDA-MB-435 = test system: MDA-MB-435
MDA-MB-231 = test system: MDA-MB-231
HCC 2998 = test system: HCC 2998
KM12 = test system: KM12
RPMI-8226 = test system: RPMI-8226
UACC-257 = test system: UACC-257
OVCAR-4 = test system: OVCAR-4
SNB-75 = test system: SNB-75
EKVX = test system: EKVX
Hs-578T = test system: Hs-578T
IGROV-1 = test system: IGROV-1

Row | SMILES | GI50 (T47D) | GI50 (LOX IMVI) | GI50 (BT-549) | GI50 (HOP-62) | GI50 (786-0) | GI50 (SF-268) | GI50 (NCI-H23) | GI50 (SW-620) | GI50 (OVCAR-8) | GI50 (MDA-MB-435) | GI50 (MDA-MB-231) | GI50 (HCC 2998) | GI50 (KM12) | GI50 (RPMI-8226) | GI50 (UACC-257) | GI50 (OVCAR-4) | GI50 (SNB-75) | GI50 (EKVX) | GI50 (Hs-578T) | GI50 (IGROV-1)
1 | O=c1[nH]c(=O)c2ncn(-c3ccc([N+](=O)[O-])cn3)c2[nH]1 | > 100 µM (inactive) | > 100 µM (inactive) | > 100 µM (inactive) | > 100 µM (inactive) | > 100 µM (inactive) | > 100 µM (inactive) | > 100 µM (inactive) | > 100 µM (inactive) | > 100 µM (inactive) | > 100 µM (inactive) | > 100 µM (inactive) | > 100 µM (inactive) | > 100 µM (inactive) | > 100 µM (inactive) | > 100 µM (inactive) | > 100 µM (inactive) | > 100 µM (inactive) | > 100 µM (inactive) |  | 
2 | Cc1c2oc3c(C)cc(F)c(C(=O)NC4C(=O)NC(C(C)C)C(=O)N5CCCC5C(=O)N(C)CC(=O)N(C)C(C(C)C)C(=O)OC4C)c3nc-2c(C(=O)NC2C(=O)NC(C(C)C)C(=O)N3CCCC3C(=O)N(C)CC(=O)N(C)C(C(C)C)C(=O)OC2C)c(N)c1=O (stereo unspecified) | 0.101 µM (active) | 0.00255 µM (active) |  | 0.107 µM (active) | 0.00512 µM (active) | < 0.001 µM (active) | 0.105 µM (active) | 0.00114 µM (active) | 0.221 µM (active) | 0.00757 µM (active) | 0.647 µM (active) | 0.109 µM (active) | 0.00475 µM (active) | < 0.001 µM (active) | 0.00395 µM (active) | 0.711 µM (active) | 0.163 µM (active) | 1.75 µM (inactive) | 0.298 µM (active) | 0.00618 µM (active)
3 | O=c1[nH]c2ccc(CC(=S)N3CCOCC3)cc2s1 |  | > 100 µM (inactive) | > 100 µM (inactive) | > 100 µM (inactive) | > 100 µM (inactive) | > 100 µM (inactive) | > 100 µM (inactive) | > 100 µM (inactive) | > 100 µM (inactive) | > 100 µM (inactive) | > 100 µM (inactive) |  | > 100 µM (inactive) | > 100 µM (inactive) | > 100 µM (inactive) |  |  | > 100 µM (inactive) | > 100 µM (inactive) | > 100 µM (inactive)
4 | O=C1c2ccccc2C2(O)c3cc4ccccc4cc3OC12O (stereo unspecified) |  | 68.5 µM (inactive) |  | 83.8 µM (inactive) | > 100 µM (inactive) | 87.7 µM (inactive) | 55.6 µM (inactive) | > 100 µM (inactive) | 58.1 µM (inactive) |  |  | 54 µM (inactive) | 46.8 µM (inactive) | 34 µM (inactive) | 30 µM (inactive) | 84.7 µM (inactive) | 49.3 µM (inactive) | 41.7 µM (inactive) |  | 85.7 µM (inactive)
5 | CC(=O)NN1C(=O)C(Cc2ccccc2)c2ccccc21 (stereo unspecified) |  | > 100 µM (inactive) |  | > 100 µM (inactive) | > 100 µM (inactive) | > 100 µM (inactive) | > 100 µM (inactive) | > 100 µM (inactive) | > 100 µM (inactive) |  |  | > 100 µM (inactive) | > 100 µM (inactive) | > 100 µM (inactive) | > 100 µM (inactive) | > 100 µM (inactive) | > 100 µM (inactive) | > 100 µM (inactive) |  | > 100 µM (inactive)
6 | CN1CCN(Cn2nc(COc3ccccc3Cl)n(/N=C/c3ccc(-c4ccc(Cl)cc4Cl)o3)c2=S)CC1 | 19.5 µM (inactive) | 33.4 µM (inactive) |  | 21.4 µM (inactive) | 18.6 µM (inactive) | 54.5 µM (inactive) | 17.9 µM (inactive) | 16.1 µM (inactive) | 27 µM (inactive) | 24.8 µM (inactive) | 26.4 µM (inactive) | 19.6 µM (inactive) | 19.7 µM (inactive) | 29.2 µM (inactive) | 34.8 µM (inactive) | 20 µM (inactive) |  | 39.4 µM (inactive) | 84.1 µM (inactive) | 28 µM (inactive)
7 | CC(C)CC(NC(=O)C(CI)Cc1ccccc1)C(=O)Nc1ccccc1 (stereo unspecified) |  | > 100 µM (inactive) | 7.76 µM (inactive) |  | > 100 µM (inactive) |  | > 100 µM (inactive) | > 100 µM (inactive) | > 100 µM (inactive) | > 100 µM (inactive) | > 100 µM (inactive) | > 100 µM (inactive) | > 100 µM (inactive) | > 100 µM (inactive) | > 100 µM (inactive) | 50 µM (inactive) | > 100 µM (inactive) | > 100 µM (inactive) |  | > 100 µM (inactive)
8 | COc1ccc2c(c1)CC[C@@H]1[C@@H]2CC[C@]2(C)C(=O)/C(=C/c3ccncc3)C[C@@H]12 | 33.3 µM (inactive) | 37.8 µM (inactive) | 67.5 µM (inactive) | 19.9 µM (inactive) | 32.3 µM (inactive) | 36.1 µM (inactive) | 35.3 µM (inactive) | 31.2 µM (inactive) | 51.6 µM (inactive) | 30.4 µM (inactive) | 64.7 µM (inactive) | 27.4 µM (inactive) | 27.2 µM (inactive) | 93.8 µM (inactive) | 29.3 µM (inactive) | 48.2 µM (inactive) | 32.1 µM (inactive) | 53.6 µM (inactive) |  | 56.1 µM (inactive)
